One experiment deals with MST1. Kind of experiment: Proteolysis of in vitro translated 35S-methionine labelled MST1 by C2C12 lysates. The class given is biochemical, human. Conditions: 35S-labelled MST1 incubated with lysates of inhibitor-treated C2C12 cells. Here is the method:
Transfection Assays. The complete open reading frame of the human MST1, [Genbank Accession No. gi|1117790] obtained from a clone bank collection (Stratagene) was inserted into the expression vector pcDNA3.1 Myc/His (Invitrogen). A constitutively active MST1 (MST1-act) was prepared as previously described (Megeney, L. A., et al., (1996) Genes Dev 10, 1173-1183). The integrity of both MST1 and MST1-act were confirmed by sequencing. The kinase activity of these protein products were verified by transient transfection into COS1 cells followed by immunoprecipitation and kinase analysis using Histone-H1 as the target substrate (see below). Transfections with MST1 and MST1-act into both COS1 and primary myoblasts were performed using Lipofectamine Plus (Gibco) as directed in the manufacturer's instructions.
In vitro translation and MST1 proteolysis. MST1-pcDNA3.1 Myc/His was in vitro transcribed and translated using a TnT T7 Coupled Wheat Germ Extract System (Promega). The labelling efficiency was verified by SDS-PAGE, Coomassie-staining and autoradiography. […] The proteolytic cleavage of MST1 was assessed by SDS-PAGE and autoradiography.
One kinase that was altered in activity co-migrated with a predicted pI (5.2) and molecular weight (36 kDa) consistent with Mammalian Sterile Twenty-like kinase (MST1). […]

The test system of another experiment is C2C12 myoblasts. Kind of experiment: C2C12 myoblast differentiation in low serum media with caspase inhibitors (MF20 staining, immunoblot of myogenic markers). Particulars: 20 μM inhibitor; for myotube formation: C2C12, low serum media, MF20 staining, up to 4 days; for myotube formation / myoblast fusion (mononucleated / fused cells): vs DMSO; for myoblast fusion (mononucleated / fused cells) / expression of MEF2C / accumulation of myogenin: C2C12, low serum; for myoblast fusion (mononucleated / fused cells): 4 days; for expression of MEF2C / accumulation of myogenin: Western blot; for expression of MEF2C: vs control; for accumulation of myogenin: vs control myoblasts. It is filed as cell-based, mouse. The method, then: Myoblast culture. C2C12 cell (mouse skeletal muscle myoblast) cultures were grown and maintained in DMEM containing 10% FBS with 50 units/ml penicillin and 50 μg/ml streptomycin (Gibco). Differentiation was induced by incubating cultures in DMEM containing only a low serum concentration (2% horse serum). Caspase activity was measured using a Caspase-3 and Caspase-8 Fluorometric Assay Kit (Pharmingen). […] Control cells were treated with an equivalent amount of vehicle (DMSO). Primary myoblast cells were derived from skeletal muscles of the hind- and fore-limbs from 1-2 day old C57BL/6 wild-type, caspase-3 heterozygous and caspase-3 null mice (Frasch, S. C., et al., (1998) J. Biol. Chem. 273, 8389-8397; Kuida, K., et al., (1996) Nature 384, 368-372) (n=5 for each genotype) as described (Cregan, S. P. et al., (1999) J. Neuro. 19, 7860-7869.). To induce differentiation, primary myoblast cultures were incubated in DMEM containing 5% horse serum.
Protein isolation, immunoblot analyses and immunocytochemistry. Cells from C2C12 and primary myoblast cultures were washed with ice-cold PBS and lysed on ice for 45 minutes in modified-RIPA buffer containing 20 mM NaF, 5 mM Na3VO4 and 10 μg/ml each of aprotinin, leupeptin, pepstatin and PMSF. Total protein was measured using the BCA protein assay (Pierce). Immunoblot analyses were performed as described (Creasy, C. L., & Chernoff, J. (1995) J. Biol. Chem. 270, 21695-21700) using antibodies for MST1, MKK6, p38γ, and p38α (Upstate), p38 and MEF2C (Cell Signaling Technologies), myogenin F5D and myosin heavy chain MF20 mAb (Developmental Hybridoma Bank), and active caspase-3 (Biovision).
C2C12 myoblasts were fixed and stained with anti-MF20 as previously described (Cregan, et al., (1999) J. Neuro. 19, 7860-7869). Primary myoblast cultures were fixed in 4% paraformaldehyde, rinsed three times in PBS containing 0.01% Triton X-100 and stained as above. For both C2C12 and primary myoblast cultures, nuclei were detected by incubating cells for 10 min with 4,6-diamidino-2-phenylindole diluted 1:10000 in PBS.
Cells were fixed after 0, 2 and 4 days of differentiation and stained with the myosin heavy chain antibody MF20. […] In contrast, differentiation was more evident in cells that were incubated with caspase-8 inhibitor, z-LETD.fmk (FIG. 2B bottom panel, C).
Background: In western blotting, separated proteins are transferred to a membrane and probed.

`COC(=O)CC[C@H](NC(=O)[C@H](CC(=O)OC)NC(=O)OCc1ccccc1)C(=O)N[C@H](C(=O)N[C@@H](CC(=O)OC)C(=O)CF)C(C)C` [z-DEVD.fmk]: in the experiment with MST1, the “36 kDa MST1 cleavage fragment” value is recorded as “not apparent”. For the same compound, the “36 kDa MST1 cleavage fragment” value in the experiment on MST1 (listed as caspase-3 inhibitor) was “absent in caspase-3 inhibited samples”. Besides, in the experiment on C2C12 myoblasts, the myotube formation entry is given as “impaired formation of myotubes”; the “myoblast fusion (mononucleated / fused cells)” value was “remained mononucleated and unfused after 4 days”; the “expression of MEF2C” value is reported as “virtually absent”; the accumulation of myogenin result was “delayed and attenuated accumulation”. Besides, in the experiment on C2C12 myoblasts (listed as Z-DEVD.fmk), the myotube formation entry was “drastically attenuated”; the “myoblast fusion (mononucleated / fused cells)” value is listed as “lack fusion capacity”; the accumulation of myogenin result is “delayed and is in lower abundance”; the “expression of MEF2C” value is “low levels of MEF2C relative to control cells”.

The values are drawn from US20060013804A1, “Modulation of stem cell differentiation by modulation of caspase-3 activity” (Ottawa Health Research Institute, priority 2002, published 2006).
